According to PubChem BioAssay (NCI):
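Test compounds were applied to cells in 96-well plates for 48 hours at 5 doses. Abbreviation: GI50, concentration required for 50% inhibition of growth. The concentration for full growth arrest is given as TGI.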

What was measured:
Assay in all cases: growth of human tumour cells (NCI), 48 h
[1] = test system: UACC-257 melanoma
[2] = test system: SNB-75 CNS
[3] = test system: BT-549 breast
[4] = test system: MDA-MB-231 breast
[5] = test system: HCT-116 colon
[6] = test system: NCI-H23 lung
[7] = test system: SN12C renal
[8] = test system: T-47D breast
[9] = test system: COLO 205 colon
[10] = test system: OVCAR-3 ovarian
[11] = test system: 786-0 renal
[12] = test system: SF-539 CNS
[13] = test system: RPMI-8226 leukemia
[14] = test system: MDA-MB-435
[15] = test system: DU-145 prostate
[16] = test system: A498 renal
[17] = test system: SK-OV-3 ovarian
[18] = test system: U251 CNS
[19] = test system: HCC-2998 colon
[20] = test system: ACHN renal
[21] = test system: PC-3 prostate
[22] = test system: NCI-H522 lung
[23] = test system: IGROV1 ovarian
[24] = test system: HL-60(TB) leukemia
[25] = test system: NCI-H460 lung
[26] = test system: HOP-62 NSCLC
[27] = test system: SW-620 colon
[28] = test system: KM12 colon
[29] = test system: SK-MEL-2 melanoma
[30] = test system: CCRF-CEM leukemia
[31] = test system: TK-10 renal
[32] = test system: NCI-H226 lung
[33] = test system: SK-MEL-5 melanoma
[34] = test system: UACC-62 melanoma
[35] = test system: SNB-19 CNS
[36] = test system: SF-268 CNS
[37] = test system: MOLT-4 leukemia
[38] = test system: SK-MEL-28 melanoma
[39] = test system: HCT-15 colon
[40] = test system: OVCAR-4 ovarian
[41] = test system: RXF 393 renal
[42] = test system: M14 melanoma
[43] = test system: OVCAR-8 ovarian
[44] = test system: OVCAR-5 ovarian
[45] = test system: UO-31 renal
[46] = test system: HOP-92 NSCLC
[47] = test system: A549 NSCLC
[48] = test system: MALME-3M melanoma
[49] = test system: HS 578T breast
[50] = test system: SR leukemia
[51] = test system: NCI/ADR-RES ovarian
[52] = test system: HT29 colon
[53] = test system: MCF7 breast
[54] = test system: SF-295 CNS
[55] = test system: LOX IMVI melanoma
[56] = test system: K-562 leukemia
[57] = test system: CAKI-1 renal

With `CS(=O)(=O)CCc1cccc(C(=O)c2cnn(-c3ccc(F)cc3)c2N)c1` the GI50 [1] was > 25 µM, the TGI [1] was > 25 µM and the GI50 [2] was > 25 µM. For the same compound, the TGI [2] was > 25 µM, the GI50 [3] was > 25 µM and the TGI [3] was > 25 µM. The GI50 [4] was > 25 µM, the TGI [4] was > 25 µM and the GI50 [5] was > 25 µM. For the same compound, the TGI [5] was > 25 µM, the GI50 [6] was > 25 µM and the TGI [6] was > 25 µM. The GI50 [7] was > 25 µM, the TGI [7] was > 25 µM and the GI50 [8] was > 25 µM. The TGI [8] was > 25 µM, the GI50 [9] was > 25 µM and the TGI [9] was > 25 µM. For the same compound, the GI50 [10] was > 25 µM, the TGI [10] was > 25 µM and the GI50 [11] was > 25 µM. For the same compound, the TGI [11] was > 25 µM, the GI50 [12] was > 25 µM and the TGI [12] was > 25 µM. For the same compound, the GI50 [13] was > 25 µM, the TGI [13] was > 25 µM and the GI50 [14] was > 25 µM. The TGI [14] was > 25 µM, the GI50 [15] was > 25 µM and the TGI [15] was > 25 µM. The GI50 [16] was > 25 µM, the TGI [16] was > 25 µM and the GI50 [17] was > 25 µM. The TGI [17] was > 25 µM, the GI50 [18] was > 25 µM and the TGI [18] was > 25 µM. For the same compound, the GI50 [19] was > 25 µM, the TGI [19] was > 25 µM and the GI50 [20] was > 25 µM. For the same compound, the TGI [20] was > 25 µM, the GI50 [21] was > 25 µM and the TGI [21] was > 25 µM. For the same compound, the GI50 [22] was > 25 µM, the TGI [22] was > 25 µM and the GI50 [23] was > 25 µM. For the same compound, the TGI [23] was > 25 µM, the GI50 [24] was > 9.84 µM and the TGI [24] was > 23.8 µM. For the same compound, the GI50 [25] was > 25 µM, the TGI [25] was > 25 µM and the GI50 [26] was > 25 µM. The TGI [26] was > 25 µM, the GI50 [27] was > 25 µM and the TGI [27] was > 25 µM. The GI50 [28] was > 25 µM, the TGI [28] was > 25 µM and the GI50 [29] was > 25 µM. The TGI [29] was > 25 µM, the GI50 [30] was > 25 µM and the TGI [30] was > 25 µM. The GI50 [31] was > 25 µM, the TGI [31] was > 25 µM and the GI50 [32] was > 25 µM. For the same compound, the TGI [32] was > 25 µM, the GI50 [33] was > 25 µM and the TGI [33] was > 25 µM. For the same compound, the GI50 [34] was > 25 µM, the TGI [34] was > 25 µM and the GI50 [35] was > 25 µM. For the same compound, the TGI [35] was > 25 µM, the GI50 [36] was > 25 µM and the TGI [36] was > 25 µM. For the same compound, the GI50 [37] was > 18 µM, the TGI [37] was > 25 µM and the GI50 [38] was > 25 µM. The TGI [38] was > 25 µM, the GI50 [39] was > 25 µM and the TGI [39] was > 25 µM. For the same compound, the GI50 [40] was > 25 µM, the TGI [40] was > 25 µM and the GI50 [41] was > 25 µM. The TGI [41] was > 25 µM, the GI50 [42] was > 25 µM and the TGI [42] was > 25 µM. The GI50 [43] was > 25 µM, the TGI [43] was > 25 µM and the GI50 [44] was > 25 µM. The TGI [44] was > 25 µM, the GI50 [45] was > 25 µM and the TGI [45] was > 25 µM. The GI50 [46] was > 25 µM, the TGI [46] was > 25 µM and the GI50 [47] was > 25 µM. For the same compound, the TGI [47] was > 25 µM, the GI50 [48] was > 25 µM and the TGI [48] was > 25 µM. For the same compound, the GI50 [49] was > 25 µM, the TGI [49] was > 25 µM and the GI50 [50] was > 25 µM. For the same compound, the TGI [50] was > 25 µM, the GI50 [51] was > 25 µM and the TGI [51] was > 25 µM. The GI50 [52] was > 25 µM, the TGI [52] was > 25 µM and the GI50 [53] was > 25 µM. For the same compound, the TGI [53] was > 25 µM, the GI50 [54] was > 25 µM and the TGI [54] was > 25 µM. The GI50 [55] was > 25 µM, the TGI [55] was > 25 µM and the GI50 [56] was > 25 µM. For the same compound, the TGI [56] was > 25 µM, the GI50 [57] was > 25 µM and the TGI [57] was > 25 µM.
